Source: ChEMBL document CHEMBL1132092, “Structure-activity relationship at the proximal phenyl group in a series of non-peptidyl N-type calcium channel antagonists” (Bioorg Med Chem Lett, 1999)

Target: Voltage-dependent N-type calcium channel subunit alpha-1B (Homo sapiens, UniProt Q00975)
Assay: Inhibition of N-type Voltage Sensitive Calcium Channel (VSCC) using IMR-32 assay
Type: functional

Voltage-dependent N-type calcium channel subunit alpha-1B, sequence (Q00975 whole entry): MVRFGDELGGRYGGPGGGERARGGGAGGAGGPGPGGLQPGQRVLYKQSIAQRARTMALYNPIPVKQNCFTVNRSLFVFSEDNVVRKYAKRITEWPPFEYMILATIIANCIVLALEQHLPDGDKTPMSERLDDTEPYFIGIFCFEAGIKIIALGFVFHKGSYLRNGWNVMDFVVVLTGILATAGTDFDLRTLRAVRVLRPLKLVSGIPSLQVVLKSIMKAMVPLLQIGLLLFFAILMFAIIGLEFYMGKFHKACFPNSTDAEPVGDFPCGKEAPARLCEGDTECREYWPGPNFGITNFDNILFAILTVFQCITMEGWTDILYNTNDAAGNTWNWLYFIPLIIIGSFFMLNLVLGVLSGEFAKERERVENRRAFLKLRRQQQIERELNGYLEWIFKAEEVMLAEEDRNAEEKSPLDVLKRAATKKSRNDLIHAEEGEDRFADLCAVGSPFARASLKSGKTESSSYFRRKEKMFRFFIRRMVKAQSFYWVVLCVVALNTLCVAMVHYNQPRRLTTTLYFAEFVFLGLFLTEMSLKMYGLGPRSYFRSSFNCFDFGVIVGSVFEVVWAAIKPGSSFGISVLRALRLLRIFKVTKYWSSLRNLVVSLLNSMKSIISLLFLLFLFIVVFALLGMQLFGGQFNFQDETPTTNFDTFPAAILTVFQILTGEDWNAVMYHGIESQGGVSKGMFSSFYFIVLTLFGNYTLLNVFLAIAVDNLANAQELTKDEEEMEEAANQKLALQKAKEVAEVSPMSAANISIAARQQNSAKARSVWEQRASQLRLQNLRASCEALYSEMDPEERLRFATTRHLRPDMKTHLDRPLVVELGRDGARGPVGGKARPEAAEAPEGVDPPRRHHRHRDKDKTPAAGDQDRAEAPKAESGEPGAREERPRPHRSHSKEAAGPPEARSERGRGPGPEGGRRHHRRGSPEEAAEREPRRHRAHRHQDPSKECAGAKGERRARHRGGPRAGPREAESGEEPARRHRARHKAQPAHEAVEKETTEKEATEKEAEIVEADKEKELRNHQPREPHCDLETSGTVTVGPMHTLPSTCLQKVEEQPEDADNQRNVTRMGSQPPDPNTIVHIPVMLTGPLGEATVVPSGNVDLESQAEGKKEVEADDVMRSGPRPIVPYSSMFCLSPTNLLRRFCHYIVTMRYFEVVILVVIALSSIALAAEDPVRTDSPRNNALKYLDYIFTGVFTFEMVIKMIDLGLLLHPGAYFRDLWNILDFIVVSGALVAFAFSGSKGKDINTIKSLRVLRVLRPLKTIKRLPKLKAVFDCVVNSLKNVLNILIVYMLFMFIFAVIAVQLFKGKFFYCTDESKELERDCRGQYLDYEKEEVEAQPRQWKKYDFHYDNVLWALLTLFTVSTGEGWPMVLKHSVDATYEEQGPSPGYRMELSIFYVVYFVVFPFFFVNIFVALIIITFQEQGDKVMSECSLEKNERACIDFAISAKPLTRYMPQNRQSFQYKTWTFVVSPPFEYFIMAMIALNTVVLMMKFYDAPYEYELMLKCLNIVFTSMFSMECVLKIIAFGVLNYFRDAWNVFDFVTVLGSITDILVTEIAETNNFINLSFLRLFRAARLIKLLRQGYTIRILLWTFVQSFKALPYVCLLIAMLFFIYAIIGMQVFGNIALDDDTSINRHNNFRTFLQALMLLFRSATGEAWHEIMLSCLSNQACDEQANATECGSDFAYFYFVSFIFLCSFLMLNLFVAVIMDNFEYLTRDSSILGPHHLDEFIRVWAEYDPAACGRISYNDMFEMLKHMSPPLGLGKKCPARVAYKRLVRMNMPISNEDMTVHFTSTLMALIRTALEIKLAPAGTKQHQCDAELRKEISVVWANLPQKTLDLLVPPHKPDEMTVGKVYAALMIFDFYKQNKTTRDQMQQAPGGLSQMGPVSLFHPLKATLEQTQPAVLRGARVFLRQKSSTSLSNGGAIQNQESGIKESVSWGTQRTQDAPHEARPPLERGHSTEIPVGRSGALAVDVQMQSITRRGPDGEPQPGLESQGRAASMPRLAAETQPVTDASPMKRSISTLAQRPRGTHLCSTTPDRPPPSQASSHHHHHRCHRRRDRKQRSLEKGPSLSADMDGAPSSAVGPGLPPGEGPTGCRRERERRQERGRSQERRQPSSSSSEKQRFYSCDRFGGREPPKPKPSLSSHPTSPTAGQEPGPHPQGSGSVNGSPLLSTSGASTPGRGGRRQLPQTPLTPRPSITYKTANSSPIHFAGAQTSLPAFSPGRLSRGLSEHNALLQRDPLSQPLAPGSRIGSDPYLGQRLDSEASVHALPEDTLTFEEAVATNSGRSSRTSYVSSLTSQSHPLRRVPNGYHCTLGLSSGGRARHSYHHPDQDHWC

Structure (SMILES)	IC50 [nM]
CC(C)=CCN(c1ccc(OCc2ccccc2)cc1)C1CCN(C(=O)[C@H](CC(C)C)NC(=O)N2CCCCCC2)CC1	340
CC(C)CCN(c1ccc(NCc2cnc[nH]2)cc1)C1CCN(C(=O)[C@H](CC(C)C)NC(=O)N2CCCCCC2)CC1	120000
CC(C)=CCN(c1ccccc1)C1CCN(C(=O)[C@H](CC(C)C)NC(=O)N2CCCCCC2)CC1	1000
CC(C)CCN(c1ccc(O)cc1)C1CCN(C(=O)[C@H](CC(C)C)NC(=O)N2CCCCCC2)CC1	1100
CC(C)CCN(c1ccc(OCc2ccccc2)cc1)C1CCN(C(=O)[C@H](CC(C)C)NC(=O)N2CCCCCC2)CC1	190
CC(C)=CCN(c1ccc(CCc2ccccc2)cc1)C1CCN(C(=O)[C@H](CC(C)C)NC(=O)N2CCCCCC2)CC1	670
